# Reference: patent EP0819124B1, “AZOLE COMPOUNDS WITH ANTIMYCOTIC ACTIVITY FOR HUMAN AND VETERINARY USE” (ZAMBON GROUP S.p.A., priority 1995, dated 1996)
# Like-named read-outs stand apart in the source and are kept apart here.
# Tests used:
# [1] = system: Candida albicans 1040; experiment: In vivo antimycotic activity in mice experimentally infected by C. albicans, oral route; design: species or system Charles River white mice (CD1 strain)
# Protocol: Charles River white mice (CD1 strain) weighing from 23 to 25 g, normo-feeded with standard diet and water ad libitum were used.
# A suspension (0.2 ml containing 2.5x10^7 cells/ml) of Candida albicans 1040 in physiologic solution was injected to each animal by venous route. Immediately after the infection and after 4, 24 and 48 hours, the animals received by oral route (in arabic gum at 2%) doses increasing in a geometrical progression of the compound to be tested. The infected group was used as control.
# The observation of the mortality of the mice was prolonged up to 14 days. From the number of survived animals for each concentration the average protective dose (DP50) was calculated by probits analysis (L.Lison - "Statistica applicata alla biologia sperimentale. La programmazione dell'esperimento e l'analisi dei risultati" - Casa Editrice Ambrosiana, 1961).
# Compounds R1 and R2 were used as comparative compounds.
# Fluconazole and Itraconazole were used as reference compounds.
# [2] = system: A. niger; experiment: In vitro antimycotic activity against recently isolated Aspergillus niger (Table 3); format: cell-based; conditions: A. niger strain 94-6222; quantity and unit not given in Table 3
# Protocol: (§1) The determination of the activity inhibiting the growth of mycetes was evaluated by the macromethod of scalar brothdilutions in geometrical progression (M.R. McGinnis and M.G. Rinaldi, "Antifungal drugs: mechanisms of action, drug resistance, susceptibility testing and assay of activity in biological fluids", in Antibiotic in Laboratory Medicine, Ed. V. Lorian, Baltimora 1991).
# (§2) As culture media Yeast Nitrogen Base broth (YNB) and Sabouraud Dextrose broth (SDB) were used for yeasts and moulds, respectively.
# (§3) The results obtained in SDB (after incubation at 28°C for 7 days) were expressed as minimum inhibiting concentrations (MIC) the growth of mycetes, while those obtained in YNB (after incubation at 35°C for 48 hours) were expressed as concentrations able to inhibit at 50% (IC50) the growth of the yeast.
# (§4) As reference compounds Fluconazole, Itraconazole and Genaconazole were used.
# [3] = system: C. albicans (7); experiment: In vitro antimycotic activity, strain panel (Table 2); format: cell-based; conditions: Candida albicans
# Protocol: as §1, §2, §3, §4
# (§5) Note to the table: MIC expressed as µg/ml Within brackets the number of tested strains Table 3
# [4] = system: Trichosporon sp. (1); experiment: as above; format: cell-based
# Protocol: as §1, §2, §3, §4, §5
# [5] = system: B. capitatus (1); experiment: as above; format: cell-based; conditions: Magnusiomyces capitatus
# Protocol: as §1, §2, §3, §4, §5
# [6] = system: C. neoformans (4); experiment: as above; format: cell-based; conditions: Cryptococcus neoformans
# Protocol: as §1, §2, §3, §4, §5
# [7] = system: C. spp * (5) (C. parapsilosis, lusitaniae, kefyr); experiment: as above; format: cell-based; conditions: Lodderomyces parapsilosis
# Protocol: as §1, §2, §3, §4, §5
# [8] = system: C. tropicalis (2); experiment: as above; format: cell-based; conditions: Candida tropicalis
# Protocol: as §1, §2, §3, §4, §5
# [9] = system: C. albicans 1040; experiment: In vitro antimycotic activity, macromethod of scalar broth dilutions (YNB); format: cell-based, Candida albicans; conditions: Candida albicans, 1040, 48 h
# Protocol: as §1, §2, §3, §4
# [10] = system: C. neoformans; experiment: as above; format: cell-based; conditions: Cryptococcus neoformans, 48 h
# Protocol: as §1, §2, §3, §4
# [11] = system: C. glabrata (2); experiment: In vitro antimycotic activity, strain panel (Table 2); format: cell-based, Candida glabrata; conditions: Nakaseomyces glabratus
# Protocol: as §1, §2, §3, §4, §5
# [12] = system: A. fumigatus; experiment: In vitro antimycotic activity, macromethod of scalar broth dilutions (SDB); format: cell-based; conditions: Aspergillus fumigatus, 168 h
# Protocol: as §1, §2, §3, §4
# [13] = system: C. krusei (2); experiment: In vitro antimycotic activity, strain panel (Table 2); format: cell-based, Candida krusei; conditions: Pichia kudriavzevii
# Protocol: as §1, §2, §3, §4, §5
# [14] = system: Fusarium sp; experiment: In vitro antimycotic activity against recently isolated Fusarium strains (Tables 2 and 3); format: cell-based; conditions: for MIC: Fusarium; for In vitro antimycotic activity: quantity and unit not given in Table 3
# Protocol: as §1, §2, §3, §4, §5
# [15] = system: T.mentagrophytes; experiment: In vitro antimycotic activity, macromethod of scalar broth dilutions (SDB); format: cell-based, Trychophyton mentagrophytes; conditions: Trichophyton mentagrophytes, 168 h
# Protocol: as §1, §2, §3, §4
structure (smiles),measurement,setting,value
"CC(COC(F)(F)C(F)F)C(O)(Cn1cncn1)c1ccc(Cl)cc1Cl (racemic) [Compound 1, (±)-1-(1H-1,2,4-triazolyl)-2-hydroxy-2-(2,4-dichlorophenyl)-3-methyl-4-(1,1,2,2-tetrafluoroethoxy)butane]",% percentage of survival after day 3,"[1]; mice infected by C. albicans, dose 25 mg/kg/os, day 3",100%
same,% percentage of survival after day 6,"[1]; mice infected by C. albicans, dose 25 mg/kg/os, day 6",100%
same,PD50 at 8th day,"[1]; oral route, 8 days from the infection, probits analysis",0.120 mg/kg/os
same,PD50 at 14th day,"[1]; oral route, 14 days from the infection, probits analysis",0.74 mg/kg/os
same,In vitro antimycotic activity,[2],≤0.03
same,MIC50,[3],≤ 0.03 µg/mL
same,MIC90,[3],0.06 µg/mL
same,MIC,[4]; Trichosporon,≤ 0.03 µg/mL
same,MIC,[5],≤ 0.03 µg/mL
same,MIC50,[6],≤ 0.03 µg/mL
same,MIC90,[6],≤ 0.03 µg/mL
same,MIC50,[7],≤ 0.03 µg/mL
same,MIC90,[7],≤ 0.03 µg/mL
same,MIC,[8],0.12 µg/mL
same,IC50,[9],0.0156 µg/mL
same,IC50,[10],0.004 µg/mL
same,MIC,[11],0.12 µg/mL
same,MIC,[12],8 µg/mL
same,MIC,[13],0.03 to 0.12 µg/mL
same,MIC,[14],0.25 µg/mL
same,In vitro antimycotic activity,[14]; Fusarium sp strain 81-256,0.25
same,In vitro antimycotic activity,[14]; Fusarium sp strain 86-3369,0.5
same,In vitro antimycotic activity,[14]; Fusarium sp strain 88-2116,0.5
same,In vitro antimycotic activity,[14]; Fusarium sp strain 946301,0.5
same,MIC,[15],0.125 µg/mL
"C[C@H]([C@](O)(Cn1cncn1)c1ccc(F)cc1F)S(C)(=O)=O [Genaconazole, (2R,3R) α-(2,4-difluorophenyl)-α-[1-(methylsulfonyl)ethyl]-1H-1,2,4-triazol-1-ethanol, reference compound]",In vitro antimycotic activity,[2],32
same,MIC50,"[3]; C. albicans, 7 strains, read-out: MIC50",2 µg/mL
same,MIC90,"[3]; C. albicans, 7 strains, read-out: MIC90",32 µg/mL
same,MIC,"[4]; Trichosporon sp., 1 strain, single value under head MIC50 MIC90, read-out: MIC",32 µg/mL
same,MIC,"[5]; B. capitatus, 1 strain, single value under head MIC50 MIC90, read-out: MIC",16 µg/mL
same,MIC50,"[6]; C. neoformans, 4 strains, read-out: MIC50",8 µg/mL
same,MIC90,"[6]; C. neoformans, 4 strains, read-out: MIC90",16 µg/mL
same,MIC50,"[7]; C. parapsilosis, lusitaniae, kefyr, 5 strains, read-out: MIC50",0.5 µg/mL
same,MIC90,"[7]; C. parapsilosis, lusitaniae, kefyr, 5 strains, read-out: MIC90",1 µg/mL
same,MIC,"[8]; C. tropicalis, 2 strains, single value or range printed under head MIC50 MIC90, read-out: MIC",> 64 µg/mL
same,MIC,"[13]; C. krusei, 2 strains, range printed under head MIC50 MIC90, read-out: MIC",16 to 32 µg/mL
same,MIC,[14],64 µg/mL
same,In vitro antimycotic activity,[14]; Fusarium sp strain 81-256,64
